Source: patent publication US20260193222A1, “COMPOUND AND USE THEREOF IN TREATMENT OF TREG-RELATED DISEASES” (BENETHERA (SHAOXING) BIOTECHNOLOGY CO., LTD., priority 2022, published 2026)

Key:
[1] = test system: CS7BL/6 mice with TNBS-induced acute enteritis; test: 2,4,6-trinitrobenzene sulfonic acid (TNBS)-induced acute enteritis in mice; format: in vivo; settings: for weight loss in model animals / disease activity index (DAI) / damage to colon tissue / length of colon: 1 mg/kg, once daily gavage; for weight loss in model animals: day 0 to day 4, FIG. 2; for disease activity index (DAI): day 0 to day 4, FIG. 3; for damage to colon tissue: dissection on day 5, FIG. 5; for length of colon: dissection on day 5, FIGS. 4 and 5; for efficacy compared with tofacitinib: derivative 1 mg/kg versus positive control tofacitinib
Protocol: CS7BL/6 mice, male, and female, 6 to 10 weeks old were used. On day-7 of the experiment, the experimental animals were weighed, and the mice were randomly divided into cages according to their body weights. The animals were allowed to adapt to the environment of the animal room. The animal room was maintained at a constant temperature (23° C.±3° C.) and constant humidity (50% relative humidity). Animals are fed standard laboratory food and have free access to drinking water. On day 0, mice were induced for TNBS colitis by intrarectal injection. The dosage of TNBS was 125 mg/kg. The solvent was 30% alcohol. Each mouse received a volume of 100 μl. After the rectal injection, the mice were inverted for 1 minute to prevent leakage of the drug solution.
The solid O-1602 derivative was dissolved in DMSO at a concentration of 2 mg/ml. The above solution was diluted to 0.1 mg/ml using PBS. TNBS enteritis mice received once daily gavage in a volume of 200 μl and were dosed daily at 11:00 a. m. The dosage of the O-1602 derivative was 1 mg/kg. The treatment schedule for the O-1602 derivative was from day 0 to day 4 of the TNBS. The mice in the control group were administered with an equal volume of solvent by gavage. At the same time, the anti-colitis drug JAK inhibitor tofacitinib was used as a positive control. The experimental results of O-1602 derivatives in this model experiment were compared. The O-1602 derivatives were dissolved in the above-mentioned way; the concentration was 1.5 mg/mL; the volume of intragastric administration was 200 μL; and the dosage was 15 mg/kg.
Mice were observed daily for body weight and anal bleeding, and the daily disease activity index (DAI) was calculated and recorded.
The experiment was terminated on day 5 of TNBS. Mice were euthanized by cervical amputation under isoflurane anesthesia. The mice were dissected and the whole colon was obtained. The length of the colon was measured and photographed.

[2] = O-1602 release of O-1602 derivatives under different pH conditions (HPLC area percentage); format: physicochemical; settings: for completeness of O-1602 release (in words): partial release with degradation into other impurities
Protocol: Example 1: Experimental on O-1602 Releases of O-1602 Derivatives Under Different pH Conditions
• Chromatographic column: shimnex CS C18 5 μm, 4.6*250 mm • Mobile phase A: 0.1% phosphoric acid in water; mobile phase B: acetonitrile (see Table 1)
Buffer solution (pH 1.6): 32.4 ml of 0.2 mol/L hydrochloric acid was accurately measured, diluted with water to 200 ml, and shaken well.
Phosphate buffer (pH 5.0): a certain amount of 0.2 mol/L sodium dihydrogen phosphate solution was taken and the pH value was adjusted by using 0.2 mol/L sodium hydroxide solution to 5.0.
Phosphate buffer (pH 6.8): a certain amount of 0.2 mol/L sodium dihydrogen phosphate solution was taken and the pH value was adjusted by using 0.2 mol/L sodium hydroxide solution to 6.8.
Phosphate buffer (pH 7.2): a certain amount of 0.2 mol/L sodium dihydrogen phosphate solution was taken and the pH value was adjusted by using 0.2 mol/L sodium hydroxide solution to 7.2.
Phosphate buffer (pH 8.0): a certain amount of 0.2 mol/L sodium dihydrogen phosphate solution was taken and the pH value was adjusted by using 0.2 mol/L sodium hydroxide solution to 8.0.
About 1 mg of O-1602 derivative was placed in a 2 mL centrifuge tube and dissolved by adding 1 mL of acetonitrile. Then 1 mL of buffer solution was added and shaken well. The obtained solution was incubated at 37° C., and sampled for determination respectively after for 2 hours and 4 hours. (The releases of O-1602 were respectively investigated at pH 1.6, pH 5.0, pH 6.8, pH 7.2, and pH 8.0)
Calculations: the content of O-1602 was calculated by area percentage.

[3] = pH 1.6~8.0, 37° C., 2 hours and 4 hours

C=C(C)[C@@H]1CCC(C)=C[C@H]1c1c(C)cc(OC(=O)OCCN(CC)CC)cc1OC(=O)OCCN(CC)CC [Compound 1]
weight loss in model animals [1]: significantly alleviated | Principal component % ([2]; 0 h): 97.185% | Principal component % ([2]; Buffer (pH 1.6), 37° C., 2 h): 96.906% | Principal component % ([2]; Buffer (pH 1.6), 37° C., 4 h): 94.115% | Principal component % ([2]; Buffer (pH 5.0), 37° C., 2 h): 78.030% | O-1602% ([2]; Buffer (pH 5.0), 37° C., 4 h): 0.457% | Principal component % ([2]; Buffer (pH 5.0), 37° C., 4 h): 24.651% | O-1602% ([2]; Buffer (pH 6.8), 37° C., 2 h): 9.801% | O-1602% ([2]; Buffer (pH 6.8), 37° C., 4 h): 20.813% | O-1602% ([2]; Buffer (pH 7.2), 37° C., 2 h): 6.354% | O-1602% ([2]; Buffer (pH 7.2), 37° C., 4 h): 20.172% | O-1602% ([2]; Buffer (pH 8.0), 37° C., 2 h): 11.455% | O-1602% ([2]; Buffer (pH 8.0), 37° C., 4 h): 33.963% | release amount of O-1602 (in words) [2, 3]: relatively high | completeness of O-1602 release (in words) ([2]; pH 1.6~8.0, 37° C.): only partially released

C=C(C)[C@@H]1CCC(C)=C[C@H]1c1c(C)cc(OC(C)=O)cc1OC(C)=O [Compound 2]
release amount of O-1602 (in words) [2, 3]: no O-1602 was released

C=C(C)[C@@H]1CCC(C)=C[C@H]1c1c(C)cc(OC(=O)NC(C(=O)O)C(C)C)cc1OC(=O)NC(C(=O)O)C(C)C (stereo partly shown) [Compound 3]
weight loss in model animals [1]: significantly alleviated | disease activity index (DAI) [1]: significantly alleviated | damage to colon tissue [1]: reduced | length of colon [1]: increased | efficacy compared with tofacitinib [1]: superior efficacy

C=C(C)[C@@H]1CCC(C)=C[C@H]1c1c(C)cc(OC(=O)NCCCCN)cc1O [Compound 6]
weight loss in model animals [1]: significantly alleviated | disease activity index (DAI) [1]: significantly alleviated | damage to colon tissue [1]: reduced | length of colon [1]: increased | efficacy compared with tofacitinib [1]: superior efficacy | release amount of O-1602 (in words) [2, 3]: small amount

C=C(C)[C@@H]1CCC(C)=C[C@H]1c1c(C)cc(OC(=O)C(N)C(C)C)cc1OC(=O)C(N)C(C)C (stereo partly shown) [Compound 7]
weight loss in model animals [1]: significantly alleviated | disease activity index (DAI) [1]: significantly alleviated | damage to colon tissue [1]: reduced | length of colon [1]: increased | efficacy compared with tofacitinib [1]: superior efficacy | Principal component % ([2]; 0 h): 87.691% | Principal component % ([2]; Buffer (pH 1.6), 37° C., 2 h): 79.094% | Principal component % ([2]; Buffer (pH 1.6), 37° C., 4 h): 81.424% | O-1602% ([2]; Buffer (pH 5.0), 37° C., 2 h): 1.088% | Principal component % ([2]; Buffer (pH 5.0), 37° C., 2 h): 26.693% | O-1602% ([2]; Buffer (pH 5.0), 37° C., 4 h): 3.800% | Principal component % ([2]; Buffer (pH 5.0), 37° C., 4 h): 8.307% | O-1602% ([2]; Buffer (pH 6.8), 37° C., 2 h): 1.972% | Principal component % ([2]; Buffer (pH 6.8), 37° C., 2 h): 3.401% | O-1602% ([2]; Buffer (pH 6.8), 37° C., 4 h): 3.518% | Principal component % ([2]; Buffer (pH 6.8), 37° C., 4 h): 1.551% | O-1602% ([2]; Buffer (pH 7.2), 37° C., 2 h): 29.354% | O-1602% ([2]; Buffer (pH 7.2), 37° C., 4 h): 19.343% | O-1602% ([2]; Buffer (pH 8.0), 37° C., 2 h): 11.933% | O-1602% ([2]; Buffer (pH 8.0), 37° C., 4 h): 43.976% | release amount of O-1602 (in words) [2, 3]: relatively high | completeness of O-1602 release (in words) ([2]; pH 1.6~8.0, 37° C.): only partially released

C=C(C)[C@@H]1CCC(C)=C[C@H]1c1c(C)cc(OC(=O)N(C)C)cc1OC(=O)N(C)C [Compound 8]
release amount of O-1602 (in words) [2, 3]: no O-1602 was released | stability (in words) [2, 3]: good stability

C=C(C)[C@@H]1CCC(C)=C[C@H]1c1c(C)cc(OC(=O)NCCN2CCN(C)CC2)cc1OC(=O)NCCN1CCN(C)CC1 [Compound 11]
disease activity index (DAI) [1]: significantly alleviated | damage to colon tissue [1]: reduced | length of colon [1]: increased | efficacy compared with tofacitinib [1]: superior efficacy | release amount of O-1602 (in words) [2, 3]: small amount

C=C(C)[C@@H]1CCC(C)=C[C@H]1c1c(C)cc(OC(=O)CN(C)C)cc1O [Compound 13]
O-1602 release (in words) ([2]; acidic buffer solution (pH 1.6), 37° C., 4 hours): trace amount | release amount of O-1602 (in words) [2, 3]: small amount
